The test system of assay [1] is aminoglycoside aptamer (tobramycin-binding aptamer) (DNA, aptamer) GGGACTTGGTTTAGGTAATGAGTCCC
The assay can be described thus: three-electrode square-wave voltammetry, 240 Hz. The following applies: 137 mM NaCl, 2.7 mM KCl; 1x PBS, ambient temperature; saturable Langmuir-Hill isotherm, reversible; immobilised aptamer.

Assay [2] shares this test system. The assay can be described thus: square-wave pulsed OECT (aptamer on gate), 70 Hz. The following applies: 137 mM NaCl, 2.7 mM KCl; 1x PBS, ambient temperature; saturable Langmuir-Hill isotherm, reversible; immobilised aptamer.

For the molecule `NC[C@H]1O[C@H](O[C@H]2[C@H](O)[C@@H](O[C@H]3O[C@H](CO)[C@@H](O)[C@H](N)[C@H]3O)[C@H](N)C[C@@H]2N)[C@H](N)C[C@@H]1O`, the binding entry in assay [1] and in assay [2] was “yes” in each case.

Values taken from PMC9668304 (2022).
